Results: ChEMBL document CHEMBL1201862, “PubChem BioAssay data set” (2004)
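Protocol summary: plate cells (96-well), add compound at 5 concentrations, incubate 48 h, interpolate endpoints linearly. GI50 marks 50% less growth.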 Active and inactive are the calls of the source. Cut-off read from the data, not from the text of the source: active = GI50 up to about 1.1 µM and inactive = higher.

Legend:
Test in all cases: inhibition of tumour cell growth, NCI panel, 48 h
ACHN = system: ACHN
BT-549 = system: BT-549
CCRF-CEM = system: CCRF-CEM
COLO 205 = system: COLO 205
EKVX = system: EKVX
HCT-116 = system: HCT-116
HL-60 = system: HL-60
HOP-92 = system: HOP-92
HT-29 = system: HT-29
LOX IMVI = system: LOX IMVI
MDA-N = system: MDA-N
NCI-H23 = system: NCI-H23
NCI-H460 = system: NCI-H460
OVCAR-4 = system: OVCAR-4
OVCAR-5 = system: OVCAR-5
SK-MEL-28 = system: SK-MEL-28
SR = system: SR
SW-620 = system: SW-620
U-251 = system: U-251
UACC-62 = system: UACC-62

Measured: GI50

O=C(O)c1ccc(SSc2ccc(C(=O)O)cn2)nc1
inactive: ACHN > 100 µM | BT-549 > 100 µM | CCRF-CEM > 100 µM | COLO 205 > 100 µM | EKVX > 100 µM | HCT-116 > 100 µM | HL-60 > 100 µM | HOP-92 > 100 µM | HT-29 > 100 µM | LOX IMVI > 100 µM | MDA-N > 100 µM | NCI-H23 > 100 µM | NCI-H460 > 100 µM | OVCAR-4 > 100 µM | OVCAR-5 > 100 µM | SK-MEL-28 > 100 µM | SR > 100 µM | SW-620 > 100 µM | U-251 > 100 µM | UACC-62 > 100 µM

CCOC(=O)c1cc2cc([N+](=O)[O-])ccc2oc1=O
inactive: ACHN > 100 µM | BT-549 > 100 µM | CCRF-CEM > 100 µM | COLO 205 > 100 µM | EKVX > 100 µM | HCT-116 93.3 µM | HL-60 99.5 µM | HOP-92 > 100 µM | HT-29 > 100 µM | LOX IMVI > 100 µM | MDA-N > 100 µM | NCI-H23 > 100 µM | NCI-H460 69.5 µM | OVCAR-4 > 100 µM | OVCAR-5 > 100 µM | SK-MEL-28 > 100 µM | SR > 100 µM | SW-620 > 100 µM | U-251 > 100 µM | UACC-62 24.3 µM

CC(C)Oc1c(N(Cc2ccccc2)c2ccccc2C2SCCCS2)c(=O)c1=O
inactive: ACHN 5.81 µM | BT-549 6.38 µM | CCRF-CEM 5.87 µM | COLO 205 3.07 µM | EKVX 4.51 µM | HCT-116 4.05 µM | HL-60 3.98 µM | HOP-92 6.81 µM | HT-29 2.52 µM | LOX IMVI 5.56 µM | MDA-N 3.1 µM | NCI-H23 3.97 µM | NCI-H460 3.69 µM | OVCAR-4 9.04 µM | OVCAR-5 5.97 µM | SK-MEL-28 11.2 µM | SR 2.79 µM | SW-620 2.71 µM | U-251 4.4 µM | UACC-62 4.89 µM

C=C1CC(O)C2C(=C)C(=O)OC2C2C(C)C(=O)CC12 (stereo not given)
inactive: ACHN 5.32 µM | BT-549 7.87 µM | CCRF-CEM 4.08 µM | COLO 205 7.33 µM | EKVX 15.4 µM | HCT-116 10 µM | HL-60 3.01 µM | HOP-92 13 µM | HT-29 18.7 µM | LOX IMVI 20 µM | MDA-N 6.87 µM | NCI-H23 16 µM | NCI-H460 24.5 µM | OVCAR-4 17.6 µM | OVCAR-5 16.1 µM | SK-MEL-28 14.3 µM | SR 9.14 µM | SW-620 5.12 µM | U-251 23 µM | UACC-62 15.3 µM

C[C@@H](NC(=O)Cn1c(Cl)nc2ccccc21)c1ccccc1
inactive: ACHN > 100 µM | BT-549 > 100 µM | CCRF-CEM > 100 µM | COLO 205 > 100 µM | EKVX 26.7 µM | HCT-116 > 100 µM | HL-60 > 100 µM | HOP-92 > 100 µM | HT-29 > 100 µM | LOX IMVI 75.7 µM | MDA-N > 100 µM | NCI-H23 46.2 µM | NCI-H460 > 100 µM | OVCAR-4 > 100 µM | OVCAR-5 > 100 µM | SK-MEL-28 > 100 µM | SR > 100 µM | SW-620 > 100 µM | U-251 > 100 µM | UACC-62 > 100 µM

N#C[BH2-][n+]1ccc(C(=O)NNCC(F)(F)F)cc1
inactive: ACHN > 100 µM | BT-549 > 100 µM | CCRF-CEM > 100 µM | COLO 205 > 100 µM | EKVX > 100 µM | HCT-116 > 100 µM | HL-60 > 100 µM | HOP-92 > 100 µM | HT-29 > 100 µM | LOX IMVI > 100 µM | MDA-N > 100 µM | NCI-H23 > 100 µM | NCI-H460 > 100 µM | OVCAR-4 > 100 µM | OVCAR-5 > 100 µM | SK-MEL-28 > 100 µM | SR > 100 µM | SW-620 > 100 µM | U-251 > 100 µM | UACC-62 > 100 µM

OC1(c2ccc(Cl)cc2)c2ccccc2C2=NCc3ccccc3CN21 (stereo not given)
inactive: ACHN 4.45 µM | BT-549 18.6 µM | CCRF-CEM 7.6 µM | COLO 205 4.9 µM | EKVX 5.48 µM | HCT-116 6.62 µM | HL-60 4.94 µM | HOP-92 13.1 µM | HT-29 14.7 µM | LOX IMVI 9.2 µM | MDA-N 12.9 µM | NCI-H23 6.97 µM | NCI-H460 11.2 µM | OVCAR-4 12.6 µM | OVCAR-5 13.1 µM | SK-MEL-28 2.75 µM | SR 8.53 µM | SW-620 2.69 µM | U-251 7.24 µM | UACC-62 13.6 µM
